# Measurements from patent publication US6906090B1, “Compositions and methods for treating mycobacterial diseases” (AstraZeneca AB, priority 1998, dated 2005).
# System: M. tuberculosis
# Experiment: BACTEC radiometric MIC test for bactericidal activity against M. tuberculosis
# Format: cell-based
# Conditions: Mycobacterium tuberculosis, read-out: minimum inhibitory concentration (MIC)
row,SMILES,MIC [µg/mL]
1,"O=C1C(=O)N(CCC2CCN(Cc3ccccc3)CC2)c2ccc(C3CCCCC3)cc21 [Example 1, 5-Cyclohexyl-1-[2-[1-(phenylmethyl)-4-piperidinyl]ethyl]-1H-indole-2,3-dione]",≤ 20
2,"O=C1C(=O)N(CCN2CCN(Cc3ccccc3)CC2)c2c1cccc2C1CCCCCC1 [Example 2, 7-Cycloheptyl-1-[2-[4-(phenylmethyl)-1-piperazinyl]ethyl]-1H-indole-2,3-dione]",≤ 20
3,"CCN(CCCCCN1C(=O)C(=O)c2cc(C3CCCCC3)ccc21)Cc1ccccc1 [Example 3, 5-Cyclohexyl-1-(5-(N-ethyl-N-phenylmethylamino)pentyl)-1H-indole-2,3-dione]",≤ 20
4,"O=C1Cc2cc(C3CCCCC3)ccc2N1CCC1CCN(Cc2ccccc2)CC1 [Example 4, 5-Cyclohexyl-1,3-dihydro-1-[2-[1-(phenylmethyl) 4-piperidinyl]ethyl]-2H-2H-indol-2-one]",≤ 20
5,"CCN(CCCCN1C(=O)C(=O)c2ccccc21)Cc1ccccc1 [Example 5, 1-(4-(N-Ethyl-N-phenylmethylamino)butyl)-1H-indole-2,3-dione]",≤ 20
6,"O=C1C(=O)N(CCN2CCN(Cc3ccccc3)CC2)c2ccc(-c3ccccc3)cc21 [Example 6, 5-Phenyl-1-[2-[4-(phenylmethyl)-1-perazinyl]ethyl]-1H-indole-2,3-dione]",≤ 20
7,"O=C1C(=O)N(CCN2CCN(Cc3ccccc3)CC2)c2c1cccc2C1CCCC1 [Example 7, 7-Cyclopentyl-1-[2-[4-(phenylmethyl)-1-piperazinyl]ethyl]-1H-indole-2,3-dione]",≤ 20
8,"O=C1C(=O)N(CCN2CCN(Cc3ccccc3)CC2)c2ccc(N3CCCCC3)cc21 [Example 8, 5-(1-Piperidinyl)-1-[2-[4-(phenylmethyl)-1-piperazinyl]ethyl]-1H-indole-2,3-dione]",≤ 20
9,"O=C1C(=O)N(CCCCBr)c2ccc(C3CCCCC3)cc21 [Example 9, 1-(4-Bromobutyl)-5-cyclohexyl-1H-indole-2,3-dione]",≤ 20
10,"CCCCCCCCCN1C(=O)C(=O)c2cccc(-c3ccccc3)c21 [Example 10, 1-Nonyl-7-phenyl-1H-indole-2,3-dione]",≤ 20
11,"CCCCCCCN1C(=O)C(=O)c2cccc(-c3ccccc3)c21 [Example 11, 1-Heptyl-7-phenyl-1H-indole-2,3-dione]",≤ 20
12,"CCCCCCCCN1C(=O)C(=O)c2cccc(-c3ccccc3)c21 [Example 12, 1-Octyl-7-phenyl-1-H-indole-2,3-dione]",≤ 20
13,"CCCCCCCCCCN1C(=O)C(=O)c2cccc(-c3ccccc3)c21 [Example 13, 1-Decyl-7-phenyl-1-H-indole-2,3-dione]",≤ 20
14,"CCCCCCCCCCCN1C(=O)C(=O)c2cccc(-c3ccccc3)c21 [Example 14, 1-Undececyl-7-phenyl-1-H-indole-2,3-dione]",≤ 20
15,"CCCCCN1C(=O)C(=O)c2cccc(-c3ccccc3)c21 [Example 15, 1-Pentyl-7-phenyl-1H-indole-2,3-dione]",≤ 20
16,"CCCCN1C(=O)C(=O)c2cccc(-c3ccccc3)c21 [Example 16, 1-Butyl-7-phenyl-1H-inidole-2,3-dione]",≤ 20
17,"CC(C)CN1C(=O)C(=O)c2cccc(-c3ccccc3)c21 [Example 17, 1-(2-Methylpropyl)-7-phenyl-1H-indole-2,3-dione]",≤ 20
18,"CCCCCCN1C(=O)C(=O)c2cccc(-c3ccccc3)c21 [Example 18, 1-Hexyl-7-phenyl-1-indole-2,3-dione]",≤ 20
19,"CCCCCCCCCCCCN1C(=O)C(=O)c2cccc(-c3ccccc3)c21 [Example 19, 1-Dodecyl-7-phenyl-1H-indole-2,3-dione]",≤ 20
20,"O=C1C(=O)N(CCCCBr)c2c1cccc2-c1ccccc1 [Example 20, 1-(4-Bromobutyl)-7-phenyl-1H-indole-2,3-dione]",≤ 20
